Laboratory results: patent US5674876A, “.rho.-heteroatom-substituted phenols and uses thereof” (Research Development Foundation, priority 1995, dated 1997)

Legend:
Type in all cases: cell-based
[1] = tested on: MCF-7 McGuire (Estrogen Responsive Human Breast Cancer Cell Line); assay: Inhibition of DNA synthesis (3H-TdR uptake) / proliferation, MCF-7; conditions: for inhibition at 0.1 µg/mL / inhibition at 1 µg/mL / inhibition at 5 µg/mL / inhibition at 10 µg/mL / inhibition at 20 µg/mL: Homo sapiens, MCF7, 48 h; for inhibition at 0.1 µg/mL: MCF-7, 0.1 μg/mL; for inhibition at 1 µg/mL: MCF-7, 1 μg/mL; for inhibition at 10 µg/mL: MCF-7, 10 μg/mL
Procedure: (§1) Cells were cultured in the following media: 1) MDA MB 435 cells were cultured in Minimum Essential Media (MEM-HyClone, Logan, Utah) supplemented with 5% heat inactivated fetal bovine serum (HyClone), 2 mM glutamine (Sigma, St. Louis, Mo.), 1 mM sodium pyruvate (Sigma), 1X MEM Non-Essential Amino Acids (Sigma), 2X MEM Vitamins (Sigma), and 100 IU/mL penicillin/100 μg/mL streptomycin (HyClone); 2) MCF-7 McGuire cells were cultured in Minimum Essential Media (MEM-HyClone, Logan, Utah) supplemented with 5% heat inactivated fetal bovine serum (HyClone), 2 mM glutamine (Sigma, St. Louis, Mo.), and 100 IU/mL penicillin/100 μg/mL streptomycin (HyClone); 3) HL-60 cells were cultured in Iscoves Modified Dulbecco's Media (IMDM-HyClone, Logan, Utah) supplemented with 5% heat inactivated fetal bovine serum (HyClone), 2 mM glutamine (Sigma, St. Louis, Mo.), 1 mM sodium pyruvate (Sigma), 1X MEM Non-Essential Amino Acids (Sigma), 2X MEM Vitamins (Sigma), and 100 IU/mL penicillin/100 μg/mL streptomycin (HyClone); 2) MCF-7 McGuire cells were cultured in Minimum Essential Media (MEM-HyClone, Logan, Utah) supplemented with 5% heat inactivated fetal bovine serum (HyClone), 2 mM glutamine (Sigma, St. Louis, Mo.), and 100 IU/mL penicillin/100 μg/mL streptomycin (HyClone); 3) HL-60 cells were cultured in Iscoves Modified Dulbecco's Media (IMDM-HyClone, Logan, Utah) supplemented with 5% heat inactivated fetal bovine serum (HyClone), 2 mM glutamine (Sigma, St. Louis, Mo.), and 100 IU/mL penicillin/100 μg/mL streptomycin (HyClone).
(§2) All compounds were handled as if they were light sensitive. All compounds were initially dissolved in absolute ethanol and subsequently diluted to a final concentration of 0.5% ethanol with the appropriate medium.
(§3) For the bioassay, all cells were used at 2.5×10^5 /mL. Cells were treated with each of the compounds at concentrations of 20, 10, 5, 1, 0.1, and 0.01 μg/mL , and 200 μl of each treatment group were plated in quadruplicate in a 96 well culture plate (Corning, Corning N.Y.). Plates were done in duplicate, one plate to be used for viability testing and the other plate to examine ^3 H-TdR uptake (DNA synthesis).
(§4) Plates were cultured for 48 hours at 37° C., 5% CO2. Eight hours prior to the end of incubation, ^3 H-TdR was added to one of the duplicate plates and incubation continued for 8 hours. The cells were then harvested (trypsinization was required to harvest MDA MB 435 and MCF-7 McGuire). At the end of the incubation, the cells were removed from the wells (of the duplicate plate--no radioisotope added) and viability checked by the Trypan Blue Exclusion method. Percent viability and percent suppression of each treatment group were calculated.
(§5) With respect to the data shown in the Tables below, the data is arranged from greatest percent inhibition of DNA synthesis to lowest. […] "NT" refers to "Not Tested". The cells were cultured for 48 hours, pulsed 8 hours with tritiated thymidine, harvested and counted. MDA MB 435 is the abbreviation for the Metastic Human Breast Cancer Cell Line. MCF-7 McGuire is the abbreviation for the Estrogen Responsive Human Breast Cancer Cell Line and HL-60 is the Human Promyelocytic Leukemia Cell Line.

[2] = tested on: HL-60 (Human Promyelocytic Leukemia Cell Line); assay: Inhibition of DNA synthesis (3H-TdR uptake) / proliferation, HL-60; conditions: for inhibition at 0.1 µg/mL / inhibition at 1 µg/mL / inhibition at 5 µg/mL / inhibition at 10 µg/mL / inhibition at 20 µg/mL: Homo sapiens, 48 h; for inhibition at 0.1 µg/mL: HL-60, 0.1 μg/mL; for inhibition at 1 µg/mL: HL-60, 1 μg/mL; for inhibition at 10 µg/mL: HL-60, 10 μg/mL
Procedure: as §1, §2, §3, §4, §5

[3] = tested on: MDA MB 435 (Metastic Human Breast Cancer Cell Line); assay: Inhibition of DNA synthesis (3H-TdR uptake) / proliferation, MB-435; conditions: for inhibition at 0.1 µg/mL / inhibition at 1 µg/mL / inhibition at 5 µg/mL / inhibition at 10 µg/mL / inhibition at 20 µg/mL: Homo sapiens, MDA-MB-435, 48 h; for inhibition at 0.1 µg/mL: MB-435, 0.1 μg/mL; for inhibition at 1 µg/mL: MB-435, 1 μg/mL
Procedure: as §1, §2, §3, §4, §5

Compound	inhibition at 0.1 µg/mL [1]	inhibition at 1 µg/mL [1]	inhibition at 5 µg/mL ([1]; MCF-7, 5 μg/mL)	inhibition at 10 µg/mL [1]	inhibition at 20 µg/mL ([1]; MCF-7, 20 μg/mL)	inhibition of proliferation (in words) ([1]; MCF-7, 5 μg/mL)	inhibition at 0.1 µg/mL [2]	inhibition at 1 µg/mL [2]	inhibition at 5 µg/mL ([2]; HL-60, 5 μg/mL)	inhibition at 10 µg/mL [2]	inhibition at 20 µg/mL ([2]; HL-60, 20 μg/mL)	inhibition at 0.1 µg/mL [3]	inhibition at 1 µg/mL [3]	inhibition at 5 µg/mL ([3]; MB-435, 5 μg/mL)	inhibition at 10 µg/mL ([3]; MB-435, 10 μg/mL)	inhibition at 20 µg/mL ([3]; MB-435, 20 μg/mL)	also measured
Cc1cc2c(c(C)c1O)C(C)CN2C(=O)C(C)C (centres unmarked) [Compound 11b, N-Isobutyryl-5-hydroxy-3,4,6-trimethylindoline]	24%	26%	47%	33%	53%	significantly inhibited the proliferation	0%	0%	0%	0%	0%	0%	21%	21%	22%	36%	effect on HL-60 cells (in words) ([2]; HL-60, no dose stated): virtually no effect; inhibition of proliferation (in words) ([3]; MB-435, 10 μg/mL): significantly inhibited the proliferation
Cc1cc2c(C)c(O)c(C)c(C)c2o1 [Compound 33, 5-Hydroxy-2,4,6,7-tetramethylbenzofuran]	19%	0%	0%	16%	72%		0%	0%	0%	7%	36%	1%	2%	8%	16%	42%	inhibition of proliferation (in words) ([1]; MCF-7, 20 μg/mL): significantly inhibited the proliferation; inhibition of proliferation (in words) ([2]; HL-60, 20 μg/mL): significantly inhibited the proliferation; inhibition of proliferation (in words) ([3]; MB-435, 20 μg/mL): significantly inhibited the proliferation
Cc1c(O)c(C)c2c(C)cn(C(=O)C(C)(C)C)c2c1C [Compound 27, N-Pivaloyl-5-hydroxy-3,4,6,7-tetramethylindole]	0%	14%	57%	86%		significantly inhibited the proliferation	0%	12%	61%	91%	97%	4%	15%	54%	91%	97%	inhibition of proliferation (in words) ([2]; HL-60, 5 μg/mL): significantly inhibited the proliferation; inhibition of proliferation (in words) ([3]; MB-435, 5 μg/mL): significantly inhibited the proliferation
CC(=O)Oc1c(C)cc2c(c1C)C(C)CN2C(=O)C(C)C (centres unmarked) [Compound 12b, N-Isobutyryl-5-acetoxy-3,4,6-trimethylindoline]	20%	47%	38%	58%	70%		0%	2%	32%	67%	46%	1%	19%	32%	24%	41%	inhibition of proliferation (in words) ([1]; MCF-7, 5-20 μg/mL): significantly inhibited the proliferation; inhibition of proliferation (in words) ([2]; HL-60, 5-20 μg/mL): significantly inhibited the proliferation; inhibition of proliferation (in words) ([3]; MB-435, 5-20 μg/mL): significantly inhibited the proliferation
